From patent US20130035326A1 (AMBIT BIOSCIENCES CORPORATION, priority 2009, published 2013)

Legend:
FLT3 kinase = biological target: T1, FLT3 kinase (Homo sapiens, UniProt P36888); test: Competition binding assay, FLT3 Kd
T1 construct: made in house; host or cells: T7 phage display or HEK-293 cells
T1 sequence (P36888 27-993): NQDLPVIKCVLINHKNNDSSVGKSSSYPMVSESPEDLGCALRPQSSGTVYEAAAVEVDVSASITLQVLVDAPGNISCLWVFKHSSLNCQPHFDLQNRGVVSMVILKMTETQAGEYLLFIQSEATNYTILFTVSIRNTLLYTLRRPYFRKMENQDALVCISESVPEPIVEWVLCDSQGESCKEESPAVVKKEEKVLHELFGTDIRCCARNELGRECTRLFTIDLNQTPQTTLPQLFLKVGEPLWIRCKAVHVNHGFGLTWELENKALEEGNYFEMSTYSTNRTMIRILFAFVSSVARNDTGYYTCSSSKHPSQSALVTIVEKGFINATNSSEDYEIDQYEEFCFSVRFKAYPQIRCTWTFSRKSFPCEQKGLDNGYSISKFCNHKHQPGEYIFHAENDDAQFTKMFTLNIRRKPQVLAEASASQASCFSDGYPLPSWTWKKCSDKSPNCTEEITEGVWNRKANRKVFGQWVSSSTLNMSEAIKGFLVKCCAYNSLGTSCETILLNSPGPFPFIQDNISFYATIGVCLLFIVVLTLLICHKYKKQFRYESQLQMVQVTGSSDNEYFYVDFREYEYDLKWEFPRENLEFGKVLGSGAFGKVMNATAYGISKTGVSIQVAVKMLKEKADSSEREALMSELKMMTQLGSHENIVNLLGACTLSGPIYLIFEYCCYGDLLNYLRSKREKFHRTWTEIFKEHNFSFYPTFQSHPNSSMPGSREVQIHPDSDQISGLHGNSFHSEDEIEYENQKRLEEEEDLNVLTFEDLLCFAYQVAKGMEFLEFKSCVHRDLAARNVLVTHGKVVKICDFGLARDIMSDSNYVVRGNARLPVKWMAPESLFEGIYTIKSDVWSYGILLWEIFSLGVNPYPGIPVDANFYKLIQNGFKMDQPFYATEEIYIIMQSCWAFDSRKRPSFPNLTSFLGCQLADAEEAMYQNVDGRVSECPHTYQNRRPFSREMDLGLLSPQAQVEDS
In short: (§1)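 Kd values derived from an eleven-point, threefold compound dilution series in a bead-based competition format: kinase (phage-fused or HEK-293-derived with DNA tag), ligand-coated streptavidin beads and compound equilibrated 1 h at room temperature. After washing, retained kinase was eluted with non-biotinylated ligand (0.5 μM) and measured by quantitative PCR.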

KIT kinase = biological target: T2, KIT kinase (Homo sapiens, UniProt P10721); test: Competition binding assay, KIT Kd
T2 construct: made in house; host or cells: T7 phage display or HEK-293 cells
In short: as §1

CSF-1R kinase = biological target: T3, CSF-1R kinase (Homo sapiens, UniProt P07333); test: Competition binding assay, CSF-1R Kd
T3 construct: made in house; host or cells: T7 phage display or HEK-293 cells
In short: as §1

MV4-11 cells = test: MV4-11 cell proliferation assay (Alamar Blue); type: cell-based; conditions: Homo sapiens, MV4-11, 72 h, 3 days incubation
In short: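 Viability readout: Alamar Blue fluorescence, ex 560/em 590 nm, 3 h after reagent addition, after 3-day exposure of 64,000 MV4-11 cells per well to a 9-point half-log compound series in 0.5% FBS Iscove's. IC50 from duplicate averages, as 50% proliferation inhibition relative to negative control.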

[1] = biological target: kinase panel containing either 359 or 386 distinct kinases; test: Selectivity score S10 from competition binding against a panel of kinases; conditions: compounds at 10 μM; panel of 359 distinct kinases
Description: Competition binding assays used herein were developed, validated and performed as described in Fabian et al., Nature Biotechnology 2005, 23,329-336. Kinases were produced as fusions to T7 phage (See, Fabian et al. or WO04/015142) or alternatively, the kinases were expressed in HEK-293 cells and subsequently tagged with DNA for PCR detection (See, WO08/005,310). For the binding assays, streptavidin-coated magnetic beads were treated with biotinylated affinity ligands for 30 min at room temperature to generate affinity resins. The liganded beads were blocked with excess biotin and washed with blocking buffer (SeaBlock (Pierce), 1% BSA, 0.05% Tween 20, 1 mM DTT) to remove unbound ligand and to reduce non-specific binding. Binding reactions were assembled by combining kinase, liganded affinity beads, and test compounds in 1× binding buffer (20% SeaBlock, 0.17×PBS, 0.05% Tween 20, 6 mM DTT). Test compounds were prepared as 100× stocks in DMSO and diluted into the aqueous environment. Kds were determined using an eleven point threefold serial dilutions. DMSO or control compounds were was added to control assays lacking a test compound. Primary screen assays were performed in polypropylene 384-well plates in a final volume of 20-40 μL, while Kd determinations were performed in polystyrene 96-well plates in a final volume of 135 μL. The assay plates were incubated at room temperature with shaking for 1 hour to allow the binding reactions to reach equilibrium, and the affinity beads were washed extensively with wash buffer (1×PBS, 0.05% Tween 20) to remove unbound protein. The beads were then resuspended in elution buffer (1×PBS, 0.05% Tween 20, 0.5 μM non-biotinylated affinity ligand) and incubated at room temperature with shaking for 30 min. The kinase concentration in the eluates was measured by quantitative PCR.
A selectivity score (S10) is a quantitative measure of selectivity of a compound against a panel of kinases. An S10 was calculated for a compound by dividing the number of kinases found to have a percent of control (DMSO) less than 10 by the total number of distinct kinases tested (excluding mutant variants). Percent of control (POC) is calculated by subtracting the signal of the control compound (POC=0) from the signal of the test compound and dividing the outcome by the signal of DMSO (POC=100) minus the signal of the control compound. For the compounds disclosed herein, S10 scores were obtained by testing the compounds at 10 μM concentration in a kinase panel containing either 359 or 386 distinct kinases.

T2 sequence (P10721 26-976): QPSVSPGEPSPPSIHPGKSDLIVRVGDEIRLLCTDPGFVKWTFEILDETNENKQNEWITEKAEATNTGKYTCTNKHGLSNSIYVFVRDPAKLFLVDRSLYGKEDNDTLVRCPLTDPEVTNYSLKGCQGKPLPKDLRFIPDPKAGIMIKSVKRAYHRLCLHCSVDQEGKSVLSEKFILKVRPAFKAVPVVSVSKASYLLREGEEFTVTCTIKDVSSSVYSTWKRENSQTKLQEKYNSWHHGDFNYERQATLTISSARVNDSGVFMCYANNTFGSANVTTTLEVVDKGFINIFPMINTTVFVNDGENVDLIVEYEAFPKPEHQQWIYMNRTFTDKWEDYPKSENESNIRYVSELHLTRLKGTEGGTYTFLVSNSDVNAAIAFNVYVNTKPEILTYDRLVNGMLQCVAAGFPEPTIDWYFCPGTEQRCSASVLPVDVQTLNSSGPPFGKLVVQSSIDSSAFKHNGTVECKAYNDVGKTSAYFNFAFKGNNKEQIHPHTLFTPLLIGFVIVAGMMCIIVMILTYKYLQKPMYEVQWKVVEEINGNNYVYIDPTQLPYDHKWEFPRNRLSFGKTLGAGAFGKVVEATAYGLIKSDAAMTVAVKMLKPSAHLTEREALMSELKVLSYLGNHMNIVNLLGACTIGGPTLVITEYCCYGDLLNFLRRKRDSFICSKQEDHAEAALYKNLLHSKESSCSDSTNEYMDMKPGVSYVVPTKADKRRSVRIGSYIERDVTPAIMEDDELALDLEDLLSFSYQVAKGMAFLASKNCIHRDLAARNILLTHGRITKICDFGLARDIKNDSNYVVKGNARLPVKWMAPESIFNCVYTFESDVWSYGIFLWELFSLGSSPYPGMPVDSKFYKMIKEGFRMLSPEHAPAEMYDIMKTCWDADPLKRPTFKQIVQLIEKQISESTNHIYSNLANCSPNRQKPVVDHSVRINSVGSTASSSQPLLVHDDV
T3 sequence (P07333 20-972): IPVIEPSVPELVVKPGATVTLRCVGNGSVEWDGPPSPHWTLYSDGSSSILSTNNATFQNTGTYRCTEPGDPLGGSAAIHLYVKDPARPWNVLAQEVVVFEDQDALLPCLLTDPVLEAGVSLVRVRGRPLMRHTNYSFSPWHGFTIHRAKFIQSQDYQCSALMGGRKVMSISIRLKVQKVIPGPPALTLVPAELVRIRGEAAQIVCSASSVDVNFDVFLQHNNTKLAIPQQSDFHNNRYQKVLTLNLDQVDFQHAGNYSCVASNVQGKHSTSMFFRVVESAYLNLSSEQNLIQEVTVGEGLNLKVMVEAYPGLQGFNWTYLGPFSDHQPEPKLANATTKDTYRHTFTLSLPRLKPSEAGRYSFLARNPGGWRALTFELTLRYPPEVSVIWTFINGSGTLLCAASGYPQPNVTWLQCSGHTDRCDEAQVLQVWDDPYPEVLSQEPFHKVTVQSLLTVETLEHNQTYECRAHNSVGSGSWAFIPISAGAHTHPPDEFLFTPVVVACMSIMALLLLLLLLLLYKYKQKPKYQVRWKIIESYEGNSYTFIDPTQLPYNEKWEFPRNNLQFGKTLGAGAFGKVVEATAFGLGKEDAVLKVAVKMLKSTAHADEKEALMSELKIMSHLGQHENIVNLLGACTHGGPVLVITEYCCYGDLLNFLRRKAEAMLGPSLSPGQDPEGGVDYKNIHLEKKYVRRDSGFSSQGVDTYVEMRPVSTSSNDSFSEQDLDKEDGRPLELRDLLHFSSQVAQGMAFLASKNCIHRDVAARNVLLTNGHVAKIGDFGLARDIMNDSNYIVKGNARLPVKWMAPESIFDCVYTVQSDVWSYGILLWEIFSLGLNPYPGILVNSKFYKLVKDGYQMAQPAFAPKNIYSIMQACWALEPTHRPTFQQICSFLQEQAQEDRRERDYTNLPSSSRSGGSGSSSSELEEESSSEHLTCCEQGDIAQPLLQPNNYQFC

Q: Cc1nc(N)ccc1-c1ccc(NC(=O)Nc2cc(C(C)(C)C)on2)nc1 [Example 25, 1-(6′-amino-2′-methyl-3,3′-bipyridin-6-yl)-3-(5-tert-butylisoxazol-3-yl)urea] was tested. Which Kd (FLT3 kinase) did it give?
A: ≤ 1 nM

Q: And the Kd (KIT kinase)?
A: ≤ 1 nM

Q: And the Kd (CSF-1R kinase)?
A: 10 to 100 nM

Q: And the IC50 (MV4-11 cells)?
A: 100 to 500 nM

Q: What about the “Kinase specificty: S(10)-359 panel” value [1] of the same compound?
A: A (A≦0.1)

Q: How did the Kd (FLT3 kinase) turn out when Cc1cc(N)ncc1-c1ccc(NC(=O)Nc2cc(C(C)(C)C)on2)nc1 [Example 26, 1-(6′-amino-4′-methyl-3,3′-bipyridin-6-yl)-3-(5-tert-butylisoxazol-3-yl)urea] was run?
A: ≤ 1 nM

Q: And the Kd (KIT kinase)?
A: ≤ 1 nM

Q: And the Kd (CSF-1R kinase)?
A: ≤ 10 nM

Q: And the IC50 (MV4-11 cells)?
A: 100 to 500 nM

Q: And the “Kinase specificty: S(10)-359 panel” value [1]?
A: A (A≦0.1)

Q: Which results are given for CC(C)(C)c1cc(NC(=O)Nc2ccc(-c3cnc(N)nc3)cc2)no1 [Example 44, 1-(4-(2-aminopyrimidin-5-yl)phenyl)-3-(5-tert-butylisoxazol-3-yl)urea]?
A: Kd (FLT3 kinase): ≤ 1 nM; Kd (KIT kinase): 1 to 10 nM; Kd (CSF-1R kinase): ≤ 10 nM; IC50 (MV4-11 cells): ≤ 1 nM; Kinase specificty: S(10)-359 panel [1]: B (0.1<B≦0.2 nM)

Q: For Nc1ncc(-c2ccc(NC(=O)Cc3cccc(C(F)(F)F)c3)cc2)cn1 [Example 46, N-(4-(2-aminopyrimidin-5-yl)phenyl)-2-(3-(trifluoromethyl)phenyl)acetamide], which Kd (FLT3 kinase) is on record?
A: 1 to 10 nM

Q: And the Kd (KIT kinase)?
A: ≤ 1 nM

Q: What about the Kd (CSF-1R kinase) of the same compound?
A: 10 to 100 nM

Q: What about the IC50 (MV4-11 cells) of the same compound?
A: 10 to 100 nM

Q: And the “Kinase specificty: S(10)-359 panel” value [1]?
A: A (A≦0.1)

Q: What does the source list for CC(C)(C)c1cc(NC(=O)Nc2ccc(-c3cnc(OCCN4CCOCC4)nc3)cc2)no1 [Example 47, 1-(5-tert-Butyl-isoxazol-3-yl)-3-{4-[2-(2-morpholin-4-yl-ethoxy)-pyrimidin-5-yl]-phenyl}-urea]?
A: Kd (FLT3 kinase): 1 to 10 nM; Kd (KIT kinase): 1 to 10 nM; Kd (CSF-1R kinase): 10 to 100 nM; IC50 (MV4-11 cells): 10 to 100 nM; Kinase specificty: S(10)-359 panel [1]: A (A≦0.1)

Q: Which Kd (FLT3 kinase) does the source give for Cc1nc(N)ncc1-c1ccc(NC(=O)Nc2cc(C(C)(C)C)on2)cc1 [Example 49, 1-(4-(2-amino-4-methylpyrimidin-5-yl)phenyl)-3-(5-tert-butylisoxazol-3-yl)urea] here?
A: ≤ 1 nM

Q: What about the Kd (KIT kinase) of the same compound?
A: ≤ 1 nM

Q: And the Kd (CSF-1R kinase)?
A: ≤ 10 nM

Q: What about the IC50 (MV4-11 cells) of the same compound?
A: ≤ 1 nM

Q: What about the “Kinase specificty: S(10)-359 panel” value [1] of the same compound?
A: B (0.1<B≦0.2 nM)

Q: Which results are given for COc1nc(N)ncc1-c1ccc(NC(=O)Nc2cc(C(C)(C)C)on2)cc1 [Example 50, 1-[4-(2-amino-4-methoxypyrimidin-5-yl)-phenyl]-3-(5-tert-butylisoxazol-3-yl)-urea]?
A: Kd (FLT3 kinase): 1 to 10 nM; Kd (KIT kinase): ≤ 1 nM; Kd (CSF-1R kinase): ≤ 10 nM; IC50 (MV4-11 cells): ≤ 1 nM; Kinase specificty: S(10)-359 panel [1]: B (0.1<B≦0.2 nM)

Q: Which results are given for CC(CF)(CF)c1cc(NC(=O)Nc2ccc(-c3cnc(NCCN4CCOCC4)nc3)cc2)no1 [Example 52, 1-[5-(2-fluoro-1-fluoromethyl-1-methylethyl)isoxazol-3-yl]-3-{4-[2-(2-morpholin-4-yl-ethylamino)pyrimidin-5-yl]phenyl}urea]?
A: Kd (FLT3 kinase): ≤ 1 nM; Kd (KIT kinase): ≤ 1 nM; Kd (CSF-1R kinase): ≤ 10 nM; IC50 (MV4-11 cells): 1 to 10 nM; Kinase specificty: S(10)-359 panel [1]: B (0.1<B≦0.2 nM)

Q: What does the source list for O=C(Nc1ccc(-c2cnc(NCCN3CCOCC3)nc2)cc1)Nc1cc(C2(C(F)(F)F)CC2)on1 [Example 53, 1-{4-[2-(2-morpholin-4-yl-ethylamino)-pyrimidin-5-yl]-phenyl}-3-[5-(1-trifluoromethyl-cyclopropyl)-isoxazol-3-yl]urea]?
A: Kd (FLT3 kinase): ≤ 1 nM; Kd (KIT kinase): ≤ 1 nM; Kd (CSF-1R kinase): ≤ 10 nM; IC50 (MV4-11 cells): 1 to 10 nM; Kinase specificty: S(10)-359 panel [1]: B (0.1<B≦0.2 nM)

Q: For O=C(Nc1ccc(-c2cnc(NCCN3CCOCC3)nc2)cc1)Nc1cccc(C(F)(F)F)c1 [Example 54, 1-(4-(2-(2-morpholinoethylamino)pyrimidin-5-yl)phenyl)-3-(3-(trifluoromethyl)phenyl)urea], which Kd (FLT3 kinase) is on record?
A: ≤ 1 nM

Q: And the Kd (KIT kinase)?
A: ≤ 1 nM

Q: What about the Kd (CSF-1R kinase) of the same compound?
A: ≤ 10 nM

Q: And the IC50 (MV4-11 cells)?
A: 10 to 100 nM

Q: And the “Kinase specificty: S(10)-359 panel” value [1]?
A: A (A≦0.1)

Q: What does the source list for Cc1ccc(F)c(NC(=O)Nc2ccc(-c3cnc(NCCN4CCOCC4)nc3)cc2)c1 [Example 55, 1-(2-fluoro-5-methylphenyl)-3-(4-(2-(2-morpholinoethylamino)pyrimidin-5-yl)phenyl)urea]?
A: Kd (FLT3 kinase): 1 to 10 nM; Kd (KIT kinase): ≤ 1 nM; Kd (CSF-1R kinase): ≤ 10 nM; IC50 (MV4-11 cells): 100 to 500 nM; Kinase specificty: S(10)-359 panel [1]: A (A≦0.1)
